Where a name gives a salt, the structure may show the parent alone.
Tests used:
benzodiazepine receptor = assay: in vitro benzodiazepine receptor binding assay (displacement of tritiated flunitrazepam); conditions: concentration inhibiting specific binding of 0.5 nM tritiated flunitrazepam by 50 %; synaptosomal membranes from rat fore-brain, pH 7.5
Experimental: The benzodiazepine receptor binding properties indicate of the nervous system regulatory activity of said new compounds are determined in the receptor binding assay in vitro, e.g. similarly to that in Nature 266, 732 ( 977) or Proc. Nat. Acad. Sci. USA 74, 3805 (1977). When tritiated flunitrazepam is used, the interaction of other drugs with said receptor can be readily assessed thus; Synaptosnal membranes from rat fore-brain are incubated at 0-5 for 30 minutes with 0.5 nM tritiated flunitrazepam and various concentrations of the test substance in a buffer medium maintained at pH 7.5. Solutions of the various concentrations of test substance are prepared by dilution of a […] stock solution in dimethylacetamide-ethanol (1:10) with 50 mM pH 7.5 Tris-HCI buffer. The membranes, containing the receptors with various amounts of tritiated flunitrazepam, are filtered onto glass fiber filters, which are then analyzed in a liquid scintillation counter. The concentration of the compounds of this invention, required to inhibit the specific binding of 0.5 nM of tritiated flunitrazepam by 50 %, the ICso, is determined graphically.

male Wistar rats = assay: Cook-Davidson conflict procedure for antianxiety effects; assay type: in vivo, rat; conditions: dose of about 10 mg/kg p.o.
From the text: Anxiolytic effects are observed, for example, according to the Cook-Davidson conflict procedure, using male Wistar rats which are maintained at 80 % of normal body weight by dietary-, but not water-restriction. They are trained to press a lever within a conditioning chamber, also containing a liquid dipper, a house light, a speaker and a grid-floor. Both lever and grid are connected to an electrical shock source and the chamber is situated in a sound-attenuated room in which a white noise-source is activated during testing, in order to mask any extraneous auditory cues. Each session of 47 minutes duration consists of two alternating schedules. The first is a Variable Interval (VI) schedule of 30 seconds, lasting for 5 minutes, during which a sweetened, condensed milk reinforcement is delivered following the first lever-press after an average of 30 seconds have elapsed, and a drug-induced decrement of this performance is taken as an indication of a neurological deficit. Immediately following the VI-schedule both a 1000 Hz tone and a light-cue are activated, indicating the commencement of the second Fixed Ration (FR) schedule, lasting for 2 minutes, wherein the milk reinforcement is delivered concomitant with an electric foot shock immediately following the tenth response, thereby establishing a conflict situation. The intensity of said shock ranges between 2.0 and 3.6 mA, varying with each animal, in order to adjust them to about 25-100 responses during this schedule over the entire session. A drug-induced enhancement of performance during the FR-schedule is taken as indication of antianxiety effects. This increased performance is measured by the increased number of electric shocks taken during six FR sessions lasting 2 minutes each.

Row | Compound | IC50 (benzodiazepine receptor) [nM] | active in the Cook-Davidson test for antianxiety effects (male Wistar rats)
1 | CC1CCc2[nH]cc3c(=O)n(-c4ccc(Cl)cc4)nc-3c2C1.Cl (stereo not shown) [Example 8e, 2-p-chlorophenyl-2,3,6,7,8,9-hexahydro-8-methylpyrazolo[4,3-c]-quinolin-3(5H)-one hydrochloride] | ~1 | active
2 | O=c1c2c[nH]c3c(c-2nn1-c1ccc(Cl)cc1)COCC3 [Example 4a, 2-p-chlorophenyl-2,3,5,6,7,9-hexahydropyrano[4,3-b]pyrazolo[3,4-d]pyridin-3-one] | ~0.9 | active
3 | O=c1c2c[nH]c3c(c-2nn1-c1ccc(Cl)cc1)CSCC3 [Example 3a, 2-p-chlorophenyl-2,3,5,6,7,9-hexahydrothiopyrano[4,3-b]pyrazolo[3,4-d]pyridine-3-one] | ~0.35 | 
4 | O=c1c2c[nH]c3c(c-2nn1-c1ccc(Cl)cc1)CCC3 [Example 7a, 2-p-chlorophenyl-2,3,5,6,7,8-hexahydrocyclopenta[b]pyrazolo[3,4-d]pyridin-3-one] | ~0.5 | 
5 | Cl.O=c1c2c[nH]c3c(c-2nn1-c1ccc(Cl)cc1)CCCC3 [Example 8a, 2-p-chlorophenyl-2,3,6,7,8,9-hexahydropyrazolo[4,3-c]quinolin-3(5H)-one hydrochloride] | ~3.5 | active
6 | O=C(Nc1ccccn1)c1cnc2c(c1O)CSCC2 [5H-7,8-dihydro-4-hydroxy-3-(N-2-pyridylcarbamoyl)thiopyrano[4,3-b]pyridine] | ~8 | 
7 | COc1ccc(-n2nc3c4c([nH]cc-3c2=O)CCCC4)cc1 [Example 12c, 2-(4-methoxyphenyl)-2,3,6,7,8,9-hexahydropyrazolo[4,3-c]quinolin-3(5H)-one] | ~0.6 | 
8 | O=c1c2c[nH]c3c(c-2nn1-c1ccc(Cl)cc1)CCCCC3 [Example 9a, 2-p-chlorophenyl-2,3,5,6,7,8,9,10-ocathydrocyclohepta[b]pyrazolo[3,4-d]pyridin-3-one hydrochloride] | ~0.8 | active
9 | O=c1c2c[nH]c3c(c-2nn1-c1ccccc1)CCC3 [Example 7b, 2-phenyl-2,3,5,6,7,8-hexahydrocyclopenta[b]pyrazolo[3,4-d]pyridin-3-one] | ~1.5 | 

From patent EP0168350B1, “Certain ring-fused pyrazolo [3,4-d]-pyridin-3-one derivatives” (CIBA-GEIGY AG, priority 1984, dated 1986)
